According to paper PMC10140581, “Development and evaluation of novel artemisinin-isatin hybrids with potential anti-leukemic cytotoxicity” (Frontiers in Oncology, 2023):

Assays:
[1] = test system: K562/ADR human myeloid leukemia cell line; experiment: MTT antiproliferative assay, K562/ADR; assay type: cell-based
Procedure: (§1) The antiproliferative activity and cytotoxicity of ester tethered ART-isatin hybrids 7a-u against human myeloid leukemia cell lines (K562 CM-0130 purchased from Procell and K562/ADR AW-CELLS-H0187 purchased from AnWei-sci), human acute lymphoblastic leukemia cell line (CCRF-CEM CL-0058 purchased from Procell) as well as cytotoxicity towards normal human peripheral blood mononuclear cells (PBMCs 230470, purchased from Mingzhoubio) were assessed by 3-(4,5-dimethylthiazol-2-yl)-2,5-diphenyltetrazolium bromide (MTT) assay. The antiproliferative activity was expressed by half maximal inhibitory concentration (IC50) values, which were presented in Table 2 .
(§2) Medium in wells was replaced after 24 h with fresh medium containing the tested compounds in DMSO (1% v/v) and incubated for 72 h. […] 3-(4,5-dimethyl-2-thiazolyl)-2,5-diphenyltetrazolium bromide (MTT) solution (10 µL) was added to each well, and the cultures were incubated for an additional 4 h at 37°C. A further 100 µL of […] was added and incubation continued overnight at 37°C. The absorbance at 540 nm was determined in each well with a 96-well plate reader. The growth of the treated cells was compared with that of untreated cells. Half maximum inhibitory concentration (IC50) is a measurement of the efficacy of a substance in inhibiting a specific biological or biochemical process. […] In this experiment, the dose-response curve constructed by Spss22.0 software was used to calculate the inhibitory effect of the hybrid (0 μM-100 μM) on the activity of leukemia cell lines. Each experiment was performed independently in triplicate with three tests in each, and results were reported as mean inhibitory concentration IC50.

[2] = test system: CCRF-CEM human acute lymphoblastic leukemia cell line; experiment: MTT antiproliferative assay, CCRF-CEM; assay type: cell-based
Procedure: as §1, with “assay.” for “assay. The antiproliferative activity was expressed by half maximal inhibitory concentration (IC50) values, which were presented in Table 2 .”
as §2

[3] = test system: normal human peripheral blood mononuclear cells (PBMCs); experiment: MTT cytotoxicity assay, normal PBMCs; assay type: cell-based; settings: PBMCs vs CCRF-CEM
Procedure: as §1, with “assay.” for “assay. The antiproliferative activity was expressed by half maximal inhibitory concentration (IC50) values, which were presented in Table 2 .”

[4] = MTT cytotoxicity assay, normal PBMCs; assay type: cell-based, human; settings: normal peripheral blood mononuclear cells (PBMCs); MTT assay, normal human PBMCs
Procedure: as §1, with “assay.” for “assay. The antiproliferative activity was expressed by half maximal inhibitory concentration (IC50) values, which were presented in Table 2 .”

[5] = test system: K562 human myeloid leukemia cell line; experiment: MTT antiproliferative assay, K562; assay type: cell-based
Procedure: as §1, with “assay.” for “assay. The antiproliferative activity was expressed by half maximal inhibitory concentration (IC50) values, which were presented in Table 2 .”
as §2

IC50 [1] | IC50 [2] | IC50 [5] | SMILES | SI, Selectivity index, IC50(PBMCs)/IC50(CCRF-CEM) [3] | IC50 [4]
> 100 µM | 19.4 µM | > 100 µM | CCON=C1C(=O)N(CCC(=O)OC2O[C@@H]3O[C@@]4(C)CC[C@H]5[C@H](C)CC[C@@H]([C@H]2C)[C@@]35OO4)c2ccc(OC)cc21 (stereo partly drawn) [hybrid 7l, (3R,5aS,6R,8aS,9R,12R,12aR)-3,6,9-trimethyldecahydro-12H-3,12-epoxy[1,2]dioxepino[4,3-i]isochromen-10-yl 3-(5-methoxy-3-(ethoxyimino)-2-oxoindolin-1-yl)propanoate] | >5.16 | > 100 µM
> 100 µM | 6.74 µM | > 100 µM | CON=C1C(=O)N(CCC(=O)OC2O[C@@H]3O[C@@]4(C)CC[C@H]5[C@H](C)CC[C@@H]([C@H]2C)[C@@]35OO4)c2ccc(OC)cc21 (stereo partly drawn) [hybrid 7k, (3R,5aS,6R,8aS,9R,12R,12aR)-3,6,9-trimethyldecahydro-12H-3,12-epoxy[1,2]dioxepino[4,3-i]isochromen-10-yl 3-(5-methoxy-3-(methoxyimino)-2-oxoindolin-1-yl)propanoate] | >14.83 | > 100 µM
> 100 µM | 1.9 µM | > 100 µM | CCON=C1C(=O)N(CCCC(=O)OC2O[C@@H]3O[C@@]4(C)CC[C@H]5[C@H](C)CC[C@@H]([C@H]2C)[C@@]35OO4)c2ccc(OC)cc21 (stereo partly drawn) [hybrid 7t, (3R,5aS,6R,8aS,9R,12R,12aR)-3,6,9-trimethyldecahydro-12H-3,12-epoxy[1,2]dioxepino[4,3-i]isochromen-10-yl 4-(3-(ethoxyimino)-5-methoxy-2-oxoindolin-1-yl)butanoate] | >52.63 | > 100 µM
> 100 µM | 3.82 µM | > 100 µM | CON=C1C(=O)N(CCCC(=O)OC2O[C@@H]3O[C@@]4(C)CC[C@H]5[C@H](C)CC[C@@H]([C@H]2C)[C@@]35OO4)c2ccc(OC)cc21 (stereo partly drawn) [hybrid 7s, (3R,5aS,6R,8aS,9R,12R,12aR)-3,6,9-trimethyldecahydro-12H-3,12-epoxy[1,2]dioxepino[4,3-i]isochromen-10-yl 4-(5-methoxy-3-(methoxyimino)-2-oxoindolin-1-yl)butanoate] | >26.17 | > 100 µM
> 100 µM | 2.45 µM | > 100 µM | COc1ccc2c(c1)C(=NOCc1ccccc1)C(=O)N2CCCC(=O)OC1O[C@@H]2O[C@@]3(C)CC[C@H]4[C@H](C)CC[C@@H]([C@H]1C)[C@@]24OO3 (stereo partly drawn) [hybrid 7u, (3R,5aS,6R,8aS,9R,12R,12aR)-3,6,9-trimethyldecahydro-12H-3,12-epoxy[1,2]dioxepino[4,3-i]isochromen-10-yl 4-(3-[(benzyloxy)imino)-5-methoxy-2-oxoindolin-1-yl]butanoate] | >40.81 | > 100 µM
